Several values for one entry are separate records, joined by “and”; a condition that tells them apart may be missing. Equal values may be shown once.
Experiments:
[1] = system: NCI-H358 cells (CYPA-high, CYPA-low); assay: Proliferation (CTG) of NCI-H358 cells with low or high CYPA; type: cell-based, human
Experimental: Data points show biological duplicates normalized to vehicle control. […] Data points show biological duplicates normalized to vehicle control from 1 of 2–26 independent experiments. Source Data
Alternatively, cells were seeded in round-bottom ultra-low attachment 96-well plates, centrifuged at 1,000 rpm for 10 min to pellet the cells, and incubated overnight or up to 72 h to allow for 3D spheroid formation. […] Cell viability was determined by CellTiter-Glo 2.0 reagent (2D CTG) (Promega, G9243) or 3D CellTiter-Glo reagent (3D CTG) (Promega, G9683) according to the manufacturer’s protocols. Luminescence was detected using a SpectraMax M5 Plate Reader (Molecular Devices) of Perkin Elmer Enspire. Luminescence signal was normalized to vehicle-treated wells (normalized signal (%) = (luminescence (treated)/mean luminescence (vehicle)) × 100%). […] Data were plotted as log [inhibitor (M)], and a four-parameter sigmoidal concentration response model was fitted to the data to calculate EC50. […] Pa16C MEK1 mutant cells were evaluated by live-cell counting using Calcein AM and a SpectraMax i3X multi-mode detection platform (Molecular Devices). Growth percentages were calculated by normalizing the treated cell counts to their respective untreated cell counts.

[2] = system: KRAS^G12X PDAC, CRC and NSCLC xenograft models; assay: Panel of 15 KRAS^G12X CDX and PDX xenograft models; type: in vivo, mouse; settings: 10 mg/kg
Experimental: Xenograft studies were conducted at GenenDesign, Pharmaron, Wuxi AppTec, the laboratory of P. Lito, and the laboratory of C. Ambrogio. […] All procedures related to animal handling, care and treatment were conducted in compliance with all applicable regulations and guidelines of the relevant Institutional Animal Care and Use Committee (IACUC). […] Experimental details are supplied in the Supplementary Methods.

CCn1c(-c2cc(N3CCN(C4CC4)CC3)cnc2[C@H](C)OC)c2c3cc(ccc31)-c1csc(n1)C[C@H](NC(=O)[C@H]1[C@@H]3COC[C@@H]31)C(=O)N1CCC[C@H](N1)C(=O)OCC(C)(C)C2 [RMC-7977]
sensitivity of CYPA-high versus CYPA-low cells, inhibition of cell proliferation ([1]; NCI-H358, doxycycline-inducible CYPA, 120 h): eightfold | Proliferation, H358 CypA high (+ 0.1 µg/ml dox) ([1]; RMC-7977 0.0152 nM): 114.566 and 114.478 and 102.697 and 95.6358 | Proliferation, H358 CypA high (- dox) ([1]; RMC-7977 0.0152 nM): 114.881 and 112.875 and 101.544 and 96.9285 | Proliferation, H358 CypA low (+ 0.1 µg/ml dox) ([1]; RMC-7977 0.0152 nM): 109.975 and 111.873 and 103.465 and 96.8877 | Proliferation, H358 CypA low (- dox) ([1]; RMC-7977 0.0152 nM): 131.295 and 170.353 and 103.153 and 109.53 | Proliferation, H358 CypA high (+ 0.1 µg/ml dox) ([1]; RMC-7977 0.0457 nM): 102.073 and 87.0456 | Proliferation, H358 CypA high (- dox) ([1]; RMC-7977 0.0457 nM): 94.1146 and 92.3438 | Proliferation, H358 CypA low (+ 0.1 µg/ml dox) ([1]; RMC-7977 0.0457 nM): 104.393 and 103.775 | Proliferation, H358 CypA low (- dox) ([1]; RMC-7977 0.0457 nM): 101.295 and 103.944 | Proliferation, H358 CypA high (+ 0.1 µg/ml dox) ([1]; RMC-7977 0.41 nM): 40.4066 and 38.4296 | Proliferation, H358 CypA high (- dox) ([1]; RMC-7977 0.41 nM): 99.8914 and 99.4838 | Proliferation, H358 CypA low (+ 0.1 µg/ml dox) ([1]; RMC-7977 0.41 nM): 94.3293 and 90.7108 | Proliferation, H358 CypA low (- dox) ([1]; RMC-7977 0.41 nM): 110.992 and 108.667 | Proliferation, H358 CypA high (+ 0.1 µg/ml dox) ([1]; RMC-7977 3.70 nM): 4.175 and 3.964 | Proliferation, H358 CypA high (- dox) ([1]; RMC-7977 3.70 nM): 92.1373 and 96.6037 | Proliferation, H358 CypA low (+ 0.1 µg/ml dox) ([1]; RMC-7977 3.70 nM): 44.8323 and 42.163 | Proliferation, H358 CypA low (- dox) ([1]; RMC-7977 3.70 nM): 108.382 and 108.201 | Proliferation, H358 CypA high (+ 0.1 µg/ml dox) ([1]; RMC-7977 11.11 nM): 1.059 and 0.9033 | Proliferation, H358 CypA high (- dox) ([1]; RMC-7977 11.11 nM): 92.3418 and 100.036 | Proliferation, H358 CypA low (+ 0.1 µg/ml dox) ([1]; RMC-7977 11.11 nM): 22.8241 and 21.8177 | Proliferation, H358 CypA low (- dox) ([1]; RMC-7977 11.11 nM): 112.468 and 108.323 | Proliferation, H358 CypA high (+ 0.1 µg/ml dox) ([1]; RMC-7977 33.33 nM): 0.7359 and 0.8327 | Proliferation, H358 CypA high (- dox) ([1]; RMC-7977 33.33 nM): 92.8182 and 94.1066 | Proliferation, H358 CypA low (+ 0.1 µg/ml dox) ([1]; RMC-7977 33.33 nM): 11.066 and 10.8911 | Proliferation, H358 CypA low (- dox) ([1]; RMC-7977 33.33 nM): 104.142 and 111.18 | Proliferation, H358 CypA high (+ 0.1 µg/ml dox) ([1]; RMC-7977 100.00 nM): 0.6202 and 0.4579 | Proliferation, H358 CypA high (- dox) ([1]; RMC-7977 100.00 nM): 94.8777 and 89.8025 | Proliferation, H358 CypA low (+ 0.1 µg/ml dox) ([1]; RMC-7977 100.00 nM): 7.141 and 7.102 | Proliferation, H358 CypA low (- dox) ([1]; RMC-7977 100.00 nM): 104.79 and 108.679 | Proliferation, H358 CypA high (+ 0.1 µg/ml dox) ([1]; RMC-7977 300.00 nM): 0.5256 and 0.2817 | Proliferation, H358 CypA high (- dox) ([1]; RMC-7977 300.00 nM): 83.7998 and 85.0113 | Proliferation, H358 CypA low (+ 0.1 µg/ml dox) ([1]; RMC-7977 300.00 nM): 5.455 and 5.338 | Proliferation, H358 CypA low (- dox) ([1]; RMC-7977 300.00 nM): 79.1522 and 100.975 | % Tumor Volume Change ([2]; CRC039, RMC-7977 10 mg/kg po qd, day 0 on study, individual animals): 241.9% and 219.3% and 159.4% | % Tumor Volume Change ([2]; CRC039, RMC-7977 10 mg/kg po qd, day 4 on study, individual animals): 220.3% and 125.3% and 145.8% | % Tumor Volume Change ([2]; CRC039, RMC-7977 10 mg/kg po qd, day 7 on study, individual animals): 121.8% and 118.8% and 123% | % Tumor Volume Change ([2]; CRC039, RMC-7977 10 mg/kg po qd, day 11 on study, individual animals): 74.4% and 112.7% and 94.2% | % Tumor Volume Change ([2]; CRC039, RMC-7977 10 mg/kg po qd, day 14 on study, individual animals): 80.2% and 106.6% and 94.1% | % Tumor Volume Change ([2]; CRC039, RMC-7977 10 mg/kg po qd, day 18 on study, individual animals): 81.1% | % Tumor Volume Change ([2]; PDAC G12D, BALB/c nude mice, 10 mg/kg po qd, day 0, individual animals): 153.24% and 151.4%
